Laboratory results: US20220265626A1, “THE SERPINB3 INHIBITOR PIPERIDINPROPIONIC ACID FOR TUMOR TREATMENT” (UNIVERSITA' DEGLI STUDI DI PADOVA, priority 2019, published 2022)

Key:
[1] = test system: HepG2/SB3 and HepG2/CTR cells; assay: Cell viability by MTT assay with antitumor drugs in the absence or presence of PPA; assay type: cell-based; conditions: for Resistance/sensitivity to drug-induced cell death, HepG2/SB3 compared with HepG2/CTR: drug 10 μM, without PPA
Protocol: The SeprinB3 molecule is known to induce resistance to chemotherapy treatment. In order to evaluate whether the inhibition of said molecule is able to increase the therapeutic efficacy of antitumor drugs, HepG2 cells stably transfected to overexpress SerpinB3 (HepG2/SB3) and HepG2 cells transfected with only the empty plasmid (HepG2/CTR) have been incubated with several antitumor drugs at a concentration of 10 μM (Cisplatin, Sorafenib, 5-Fluorouracil, Methotrexate) in the absence or presence of PPA. […] The results are expressed as a percentage of viability compared to cells incubated with only medium (CTR).

[2] = test system: HepG2 liver tumor derived cells (HB8065); assay: Real-time cell proliferation / cellular toxicity (xCELLigence, Normalized Cell Index); assay type: cell-based; conditions: monitored for over 60 hours
Protocol: HepG2 liver tumor derived cells (HB8065), incubated with increasing concentrations of 1′-Piperidin propionic acid (PPA) in a range of 5 -50 μg/ml were used and real-time cell proliferation was analysed, using xCELLigence instrument (ACEA Biosciences, Inc., San Diego, Calif., USA), according to the supplier's instructions. In each well of an E-16 plate, 4×10^4 HepG2 cells (HB8065) were seeded in quadruplicate, cultured in complete MEM medium (Sigma-Aldrich, Milan, Italy) supplemented with 10% fetal calf serum (Sigma-Aldrich, Milan, Italy), 100 U/mL of penicillin, 100 μg/ml of streptomycin, and 20 mM L-glutamine (Sigma-Aldrich, Milan, Italy) and 1% of MEM Non Essential Amino Acids. The cells were kept in an incubator at 37° C. with 95% humidity and 5% CO2 saturation. The complete medium was used as a control. The RTCA system monitored the electrical impedance, which is directly proportional to the number of cells present per well, indicated as Cell Index every 5 min for over 60 hours. The cell proliferation curves were analysed with the RTCA software and expressed as the Normalized Cell Index at the time of the treatment with PPA, an arbitrary unit corresponding to the number of cells present per well.
It should be noted that said concentration (5 μg/ml) is markedly higher than the biologically active PPA concentrations, whose normal range of use was 10-100 ng/ml.

SerpinB3 = SerpinB3 mRNA expression by real-time PCR (induced by exogenous SerpinB3 in THP-1 and HT29; constitutive in OE33 and HepG2/SB3); assay type: cell-based
Protocol: PPA was added in culture at a concentration of 1-100 ng/ml alone or in combination with recombinant SerpinB3 (SB3) at a concentration of 20-200 ng/ml to the cells, while only culture medium was added to the control wells. After 24 hours of treatment, the cells were collected by scraper and the extraction of total cell RNA and reverse transcription were performed according to standard protocols. SerpinB3 mRNA levels were measured by real-time PCR (sense: 5′-[…]-3′ (SEQ ID NO:1); reverse 5′-[…]-3′ (SEQ ID NO:2)).
They were seeded in 6-well plates and kept for 24 hours before treatment, each in its own complete culture medium in (Sigma-Aldrich, Milan, Italy). PPA (1′-piperidin propionic acid) was then added at a concentration of 10-100 ng/ml in PBS.
It should be noted that concentrations of 1-10 ng/ml are already able to reduce the synthesis of SerpinB3 by about 50%.

[3] = test system: THP-1 cells of monocytic origin; assay: Real-time proliferation of THP-1 cells stimulated with exogenous SerpinB3 (xCELLigence); assay type: cell-based; conditions: THP-1 cells with exogenous SerpinB3 20 ng/ml, PPA 1 ng/ml, 10 ng/ml, 10 μg/ml, up to 120 hours
Protocol: To evaluate cell proliferation in real time, the xCELLigence instrument (ACEA Biosciences, Inc., San Diego, Calif., USA) was used, as described in Example 1. THP-1 cells of monocytic origin were used, whose incubation with exogenous recombinant SerpinB3 (20 ng/ml) had induced a marked increase in the synthesis of endogenous SerpinB3, as reported in Example 2. A suspension of […] cells in quadruplicate was seeded in each well of an E-16 plate, cultured in complete RPMI medium (Sigma-Aldrich, Milan, Italy). The cells incubated with SerpinB3 alone or in the presence of PPA (1 ng/ml-10ng/ml-10 μg/ml) were monitored for up to 120 hours by the xCELLigence instrument and the cell proliferation curves shown in FIG. 3 were processed and expressed by the RTCA software as the Normalized Cell Index.

CCL15 and PD-L1 = assay: Expression of SerpinB3-induced cytokines in THP-1 cells; assay type: cell-based; conditions: PPA 1 ng/ml
Description: It has been documented that SerpinB3, in addition to inducing resistance to cell death and increased proliferation, is able to induce a reduction in tumor immunosurveillance, in particular through the increased production of cytokines such as CCL15, recently involved in the reduction of immune surveillance in hepatocellular carcinoma, and the immune checkpoint molecule PD-L1, towards which several new antitumor drugs are directed.

MDR1 and MDR2 genes = assay: Multidrug resistance gene expression by real time PCR; assay type: cell-based; conditions: HepG2/SB3 cells, PPA 10 and 100 ng/ml, 24 hours
Protocol: In order to understand more fully whether the resistance to chemotherapeutic drugs induced by SerpinB3 is exclusively linked to the increased resistance to cell death following the reduced activation of the mitochondrial proapoptotic cascade, the genes involved in multiple resistance to chemotherapeutic drugs have been analysed (multidrug resistance, MDR). In particular, HepG2/SB3 and HepG2 control cells (HepG2/empty) were collected after 24 hours of treatment with PPA at the doses of 10 ng/ml and 100 ng/ml and the gene expression was analysed as follows: MDR 1, MDR 2, MRP1, MRP2, MRP3, GSTP1 by real time PCR according to standard protocols.

[4] = test system: tumor development in the liver; assay: DEN plus CDAA diet mouse model of obesity-associated carcinogenesis; assay type: in vivo
Description: To better assess the role of SerpinB3 in carcinogenesis, a mouse model of obesity-associated carcinogenesis that requires a single administration of diethyl-nitrosamine (DEN) has been developed in mice with different expression of SerpinB3. The study has been performed in mice transgenic for human SerpinB3 (SerpinB3/TG) (the initial colony was kindly provided by Prof. Cassani, Tecnogen, Caserta, Italy) and in SerpinB3 knockout mice (SerpinB3/KO) (the initial colony was kindly provided by Dr. Gary Silverman and Dr. Cliff J. Luke, University of Pittsburg, Children's Hospital, Pittsburg, Pa.). Moreover wild type mice of similar age were used as controls. All animals were bred and maintained with free access to pellet food and water at the Animal Care Facility of the Experimental Surgery Division of the University of Padua.
Mice were injected with (DEN, 25 mg/kg i.p.) at the age of 2 weeks. These mice were fed at the age of 6 weeks with a choline-deficient L-amino acid-defined (CDAA) diet and part of them were sacrificed after […], while the remaining mice were sacrificed after […]. Two groups of control mice were also treated or not with PPA (weekely intraperitoneal injection of 50 ng/g of body weight) during CDAA diet. The experimental protocol was approved by the local Ethical Committee and by the Italian Ministry of Health (Authorization N. 442/2018-PR).

SMILES: O=c1[nH]cc(F)c(=O)[nH]1 [5-Fluorouracil, reference compound]
- Resistance/sensitivity to drug-induced cell death, HepG2/SB3 compared with HepG2/CTR [1]: not different

SMILES: N.N.[Cl][Pt][Cl] [Cisplatin, reference compound]
- Resistance/sensitivity to drug-induced cell death, HepG2/SB3 compared with HepG2/CTR [1]: greater resistance to cell death

SMILES: CN(Cc1cnc2nc(N)nc(N)c2n1)c1ccc(C(=O)N[C@@H](CCC(=O)O)C(=O)O)cc1 [Methotrexate, reference compound]
- Resistance/sensitivity to drug-induced cell death, HepG2/SB3 compared with HepG2/CTR [1]: not different

SMILES: O=C(O)CCN1CCCCC1 [PPA, 3-(1-piperidinyl)propanoic acid]
- PPA concentration up to which no cellular toxicity is observed ([2]; PPA 5-50 μg/ml): up to 5 μg/ml
- PPA doses at which cellular toxicity is highlighted (curves below the control curve) [2]: 25 to 50 µg/mL
- Constitutive SerpinB3 expression (SerpinB3; OE33 and HepG2/SB3 cells, PPA 10-100 ng/ml): reduces in a dose-dependent manner
- Reduction of the synthesis of SerpinB3 (SerpinB3; PPA concentrations of 1-10 ng/ml): about 50%
- SerpinB3 expression induced by exogenous treatment (SerpinB3; THP-1 and HT29 cells, PPA 1-100 ng/ml with recombinant SerpinB3 20-200 ng/ml, 24 hours): reduces in a dose-dependent manner
- Proliferative activity (Normalized Cell Index) [3]: reduction of the proliferative activity which has proved to be dose-dependent
- CCL15 level after stimulation with exogenous SerpinB3 (CCL15 and PD-L1): markedly reduced
- PD-L1 level after stimulation with exogenous SerpinB3 (CCL15 and PD-L1): markedly reduced
- Viability of cells with high levels of SerpinB3 treated with 5-Fluorouracil, on addition of PPA ([1]; HepG2/SB3, 5-Fluorouracil 10 μM): significant reduction of viability
- Viability of cells with high levels of SerpinB3 treated with Cisplatin, on addition of PPA ([1]; HepG2/SB3, Cisplatin 10 μM): significant reduction of viability
- Viability of cells with high levels of SerpinB3 treated with Methotrexate, on addition of PPA ([1]; HepG2/SB3, Methotrexate 10 μM): did not change
- Viability of cells with high levels of SerpinB3 treated with Sorafenib, on addition of PPA ([1]; HepG2/SB3, Sorafenib 10 μM): significant reduction of viability
- MDR1 gene expression (MDR1 and MDR2 genes): reduction of their expression in a dose-dependent manner
- MRD2 gene expression (MDR1 and MDR2 genes): reduction of their expression in a dose-dependent manner
- Tumor formation compared with mice that did not receive the compound ([4]; control (wild type) mice, DEN 25 mg/kg i.p. then CDAA diet, PPA weekly i.p. 50 ng/g body weight, preliminary results): remarkable reduction of tumor formation
- Tolerability in the experimental model ([4]; experimental model): well tolerated

SMILES: CNC(=O)c1cc(Oc2ccc(NC(=O)Nc3ccc(Cl)c(C(F)(F)F)c3)cc2)ccn1 [Sorafenib, reference compound]
- Resistance/sensitivity to drug-induced cell death, HepG2/SB3 compared with HepG2/CTR [1]: greater resistance to cell death
